Like-named read-outs stand apart in the source and are kept apart here. *1 amine or outer side, *2 acyl side, *3 side chain or, on linkers, in order; H or OH if unused. Where a SMILES comes first, the peptide text is derived from it. Bridges are numbered along the chain shown (N, C = ends). [ ]: non-standard residue; d: D form. Trp(2-yl) = O=C([C@H](Cc1c([*:3])[nH]c2ccccc12)N[*:1])[*:2]; hCys = N[C@@H](CCS)C(=O)O; Ahx = NCCCCCC(=O)O
Experiments:
Serum stability test = type: in vitro ADME; details: 20% human serum in PBS, 37 °C, monitored over 24 h
Experimental: 1.6.3 Serum stability test
500 μL of PBS buffer supplemented with 20% (v/v) of human serum was allocated into an Eppendorf tube and temperature kept at 37 °C for 15 minutes before commencing the experiment. 5 µL of the peptide from 10 mM stock solution in DMSO was added. Caffeine was added as an internal standard (10 μL of a 15 mg/mL solution in MQ water). At specific intervals, 50 µL of the reaction mixture was taken and quenched with 100 µL of a 1:1 mixture of 96% Ethanol:DMSO. The suspension was spun at 13400 g for 10 minutes. 100 μL of the supernatant was analysed using C-18 HPLC with an eluting gradient 5-95% MeCN (0.05% TFA) in water (0.05% TFA) over 15 minutes (90 μL injection volume).
Percentage of intact starting peptide was monitored over 24 h (calculated as the ratio of the area of […]
the peak corresponding to the intact peptide to the area of the peak of caffeine). The experiment was […]
1 M. M. Wiedmann, Y. S. Tan, Y. Wu, S. Aibara, W. Xu, H. F. Sore, C. S. Verma, L. Itzhaki, M.
Stewart, J. D. Brenton and D. R. Spring, Angew. Chemie Int. Ed., 2017, 56, 524–529.
3 G. T. Potter, G. C. Jayson, G. J. Miller and J. M. Gardiner, J. Org. Chem., 2016, 81, 3443–3446.
4 J. Iegre, P. Brear, D. J. Baker, Y. S. Tan, E. L. Atkinson, H. F. Sore, D. H. O’ Donovan, C. S. Verma,
7 C. Puig Duran, F. Albericio Palomera, M. Gongora Benitez, M. Paradis Bas, L. Miret Casals, I. […]

[1] = MTT cell viability assay in HeLa cells; type: cell-based; details: human
Experimental: (§1) HeLa cells were maintained in 5% CO2 in DMEM supplemented with 10% FBS, 2 mM L-glutamine, 100 U/mL penicillin and […] streptomycin, in an atmosphere containing 5% CO2.
(§2) Cells were regularly passed and used for experiments within one month after thawing (10-15 […]
(§3) 1.6.2 Cell viability assay
(§4) Cell viability was assayed by 3-(4,5-dimethylthiazol-2-yl)-2,5-diphenyltetrazolium bromide (MTT) colorimetric assay. HeLa cells were plated on 96-well plates (20,000 cells per well in 100 μL). After 24 h, cells were treated with different concentrations of test compounds or vehicle alone (DMSO). One hour before the end of the incubations, 10 μL of MTT solution (5 mg/mL in PBS) were added to each well. Formazan crystals (proportional to the number of viable cells) were then dissolved by the addition of 20 μL/well of a pH 4.7 solution containing 20% (w:v) SDS, 50% (v:v) N,N-dimethylformamide, 2% (v:v) acetic acid, and 25 mM HCl, and quantified by recording the absorbance at 570 nm using an Infinite M200 PRO plate reader (TECAN, Life Sciences). […]

HeLa cells = test: MTT cell viability assay in HeLa cells; type: cell-based; details: HeLa cells, MTT, 48 h
Experimental: as §1, §2, §3, §4

SMILES | Serum stability (in words) (Serum stability test) | viability at 48 h, 50 µM [1] [%] | viability at 48 h, 100 µM [1] [%] | Effect on cell viability (in words) (HeLa cells) | viability at 48 h, 50 µM ([1]; HeLa cells, 48 h, 50 μM compound, ±standard deviation, read-out: Cell viability (%) 50 μM compound) [%] | viability at 48 h, 100 µM ([1]; HeLa cells, 48 h, 100 μM compound, ±standard deviation, read-out: Cell viability (%) 100 μM compound) [%]
CC(=O)N[C@@H](CCS)C(=O)N[C@@H](CCCNC(=N)N)C(=O)N[C@@H](CC(C)C)C(=O)N[C@@H](Cc1ccc(O)cc1)C(=O)NCC(=O)N[C@@H](Cc1ccccc1)C(=O)N[C@@H](CCCCN)C(=O)N[C@@H](Cc1c[nH]c2ccccc12)C(N)=O [Peptide P8] (Ac-[hCys]RLYGFKW-NH2) | fully had degraded after 1 h | – | – | – | – | –
CC(C)C[C@@H]1NC(=O)[C@H](CCCNC(=N)N)NC(=O)[C@@H](NC(=O)CCCCCNC(=O)CCCCCNC(=O)[C@H](CCCNC(=N)N)NC(=O)[C@H](CCCNC(=N)N)NC(=O)[C@@H](N)CCCNC(=N)N)CCSc2[nH]c3ccccc3c2C[C@@H](C(N)=O)NC(=O)[C@H](CCCCN)NC(=O)[C@H](Cc2ccccc2)NC(=O)CNC(=O)[C@H](Cc2ccc(O)cc2)NC1=O [Peptide R3-P8C9] (H-RRR[Ahx][Ahx][hCys]RLYGFK[Trp(2-yl)]-NH2; thioether 6-13) | – | 66 ± 5 | 54 ± 4 | large reduction in cell viability | – | –
CC(C)C[C@@H]1NC(=O)[C@H](CCCNC(=N)N)NC(=O)[C@@H](NC(=O)CCCCCNC(=O)CCCCCNC(=O)[C@H](CCC(N)=O)NC(=O)[C@@H]2CCCN2C(=O)[C@@H]2CCCN2C(=O)[C@H](CCCNC(=N)N)NC(=O)[C@H](CCCNC(=N)N)NC(=O)[C@H](CCCNC(=N)N)NC(=O)[C@H](CCC(N)=O)NC(=O)[C@H](CCCNC(=N)N)NC(=O)[C@H](CCCNC(=N)N)NC(=O)[C@H](CCCCN)NC(=O)[C@H](CCCCN)NC(=O)[C@H](CCCNC(=N)N)NC(=O)CN)CCSc2[nH]c3ccccc3c2C[C@@H](C(N)=O)NC(=O)[C@H](CCCCN)NC(=O)[C@H](Cc2ccccc2)NC(=O)CNC(=O)[C@H](Cc2ccc(O)cc2)NC1=O [TAT-P8C9] (H-GRKKRRQRRRPPQ[Ahx][Ahx][hCys]RLYGFK[Trp(2-yl)]-NH2; thioether 16-23) | – | – | – | large reduction in cell viability | 66 ± 4 | 26 ± 7
